Results on 19 compounds are retold here after patent US20230117470A1, “SUBSTITUTED PYRAZOLE COMPOUNDS AS TOLL RECEPTOR INHIBITORS” (BRISTOL-MYERS SQUIBB COMPANY, priority 2019, published 2023).

Molecules are shown by their SMILES.

One may read the IC50 as the midpoint of a concentration-inhibition curve.

What all share (format): cell-based
In assay [1] the target is T1, human TLR7 (Homo sapiens, UniProt Q9NYK1).
T1 construct: host or cells: HEK-Blue cells
T1 sequence (Q9NYK1 27-1049): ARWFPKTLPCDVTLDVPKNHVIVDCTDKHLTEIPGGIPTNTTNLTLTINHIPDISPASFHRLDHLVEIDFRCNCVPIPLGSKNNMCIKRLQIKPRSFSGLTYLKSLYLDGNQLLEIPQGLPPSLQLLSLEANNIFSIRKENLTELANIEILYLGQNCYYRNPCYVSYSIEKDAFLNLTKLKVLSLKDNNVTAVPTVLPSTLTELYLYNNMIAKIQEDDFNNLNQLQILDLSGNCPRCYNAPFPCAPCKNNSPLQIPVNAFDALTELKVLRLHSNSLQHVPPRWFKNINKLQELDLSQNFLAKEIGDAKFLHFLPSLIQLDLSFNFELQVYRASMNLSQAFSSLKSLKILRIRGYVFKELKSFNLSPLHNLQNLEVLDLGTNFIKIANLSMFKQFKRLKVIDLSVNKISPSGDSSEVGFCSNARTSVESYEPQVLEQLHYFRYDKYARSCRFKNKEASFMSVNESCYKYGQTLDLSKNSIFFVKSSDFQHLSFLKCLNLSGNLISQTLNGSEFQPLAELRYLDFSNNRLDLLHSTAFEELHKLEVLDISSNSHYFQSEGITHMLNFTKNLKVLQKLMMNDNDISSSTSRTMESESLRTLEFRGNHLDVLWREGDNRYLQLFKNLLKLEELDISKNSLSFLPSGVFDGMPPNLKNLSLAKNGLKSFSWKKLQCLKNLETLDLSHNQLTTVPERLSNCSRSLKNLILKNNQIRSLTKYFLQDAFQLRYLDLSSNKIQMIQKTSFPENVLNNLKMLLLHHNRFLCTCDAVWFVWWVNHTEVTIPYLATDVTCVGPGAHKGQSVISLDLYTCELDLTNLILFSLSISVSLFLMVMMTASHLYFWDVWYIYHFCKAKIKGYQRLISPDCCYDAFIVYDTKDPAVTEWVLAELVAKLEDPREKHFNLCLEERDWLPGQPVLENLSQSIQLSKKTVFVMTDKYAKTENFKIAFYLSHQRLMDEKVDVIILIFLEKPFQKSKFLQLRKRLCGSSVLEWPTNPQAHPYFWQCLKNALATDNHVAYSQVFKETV
Kind of assay: TLR7 inhibition reporter assay (HEK-Blue cells, SEAP reporter, gardiquimod stimulation). Particulars: HEK-Blue cells overexpressing human TLR7, SEAP reporter, gardiquimod 7.5 μM. The method, boiled down: (§1)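 HEK-Blue cells overexpressing human TLR7, TLR8 or TLR9, with an NF-κB/AP-1-driven SEAP reporter, pre-treated 30 min at room temperature with compound (0.05 nM-50 μM final). Stimulated with 7.5 μM gardiquimod (TLR7), 15.9 μM R848 (TLR8) or 5 nM ODN2006 (TLR9), then 22 h at 37° C. SEAP read with HEK-Blue Detection; % inhibition set against agonist+DMSO and known-inhibitor wells.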

Assay [2] has as its target T2, human TLR8 (Homo sapiens, UniProt Q9NR97).
T2 construct: host or cells: HEK-Blue cells
T2 sequence (Q9NR97 27-1041): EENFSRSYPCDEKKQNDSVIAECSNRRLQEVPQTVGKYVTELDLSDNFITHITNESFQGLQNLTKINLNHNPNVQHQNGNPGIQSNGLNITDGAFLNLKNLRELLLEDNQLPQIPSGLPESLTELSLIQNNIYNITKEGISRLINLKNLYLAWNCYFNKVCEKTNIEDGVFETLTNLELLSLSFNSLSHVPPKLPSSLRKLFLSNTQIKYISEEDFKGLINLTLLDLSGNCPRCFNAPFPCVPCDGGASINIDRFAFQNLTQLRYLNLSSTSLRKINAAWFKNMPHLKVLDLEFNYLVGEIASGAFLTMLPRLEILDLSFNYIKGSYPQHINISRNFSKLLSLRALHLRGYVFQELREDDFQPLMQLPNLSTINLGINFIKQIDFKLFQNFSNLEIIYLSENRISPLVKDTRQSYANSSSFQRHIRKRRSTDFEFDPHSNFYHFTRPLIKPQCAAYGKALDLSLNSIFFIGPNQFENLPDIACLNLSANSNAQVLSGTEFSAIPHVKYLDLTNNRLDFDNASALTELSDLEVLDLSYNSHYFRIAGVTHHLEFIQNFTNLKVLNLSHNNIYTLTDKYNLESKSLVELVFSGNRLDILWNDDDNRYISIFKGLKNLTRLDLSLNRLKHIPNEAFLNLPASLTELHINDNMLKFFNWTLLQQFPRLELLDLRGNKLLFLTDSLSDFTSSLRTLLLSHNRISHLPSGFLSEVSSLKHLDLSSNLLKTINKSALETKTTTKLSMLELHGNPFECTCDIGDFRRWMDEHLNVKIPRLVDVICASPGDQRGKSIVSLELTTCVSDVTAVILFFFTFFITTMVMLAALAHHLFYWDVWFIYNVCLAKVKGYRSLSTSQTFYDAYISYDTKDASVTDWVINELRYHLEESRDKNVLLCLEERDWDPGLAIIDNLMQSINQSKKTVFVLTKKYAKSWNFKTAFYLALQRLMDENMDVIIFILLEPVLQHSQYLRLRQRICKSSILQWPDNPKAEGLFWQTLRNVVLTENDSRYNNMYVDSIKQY
Kind of assay: TLR8 inhibition reporter assay (HEK-Blue cells, SEAP reporter, R848 stimulation). Conditions: HEK-Blue cells overexpressing human TLR8, SEAP reporter, R848 15.9 μM. The method, boiled down: as §1

For assay [3], the target named is T3, human TLR9 (Homo sapiens, UniProt Q9NR96).
T3 construct: host or cells: HEK-Blue cells
T3 sequence (Q9NR96 26-1032): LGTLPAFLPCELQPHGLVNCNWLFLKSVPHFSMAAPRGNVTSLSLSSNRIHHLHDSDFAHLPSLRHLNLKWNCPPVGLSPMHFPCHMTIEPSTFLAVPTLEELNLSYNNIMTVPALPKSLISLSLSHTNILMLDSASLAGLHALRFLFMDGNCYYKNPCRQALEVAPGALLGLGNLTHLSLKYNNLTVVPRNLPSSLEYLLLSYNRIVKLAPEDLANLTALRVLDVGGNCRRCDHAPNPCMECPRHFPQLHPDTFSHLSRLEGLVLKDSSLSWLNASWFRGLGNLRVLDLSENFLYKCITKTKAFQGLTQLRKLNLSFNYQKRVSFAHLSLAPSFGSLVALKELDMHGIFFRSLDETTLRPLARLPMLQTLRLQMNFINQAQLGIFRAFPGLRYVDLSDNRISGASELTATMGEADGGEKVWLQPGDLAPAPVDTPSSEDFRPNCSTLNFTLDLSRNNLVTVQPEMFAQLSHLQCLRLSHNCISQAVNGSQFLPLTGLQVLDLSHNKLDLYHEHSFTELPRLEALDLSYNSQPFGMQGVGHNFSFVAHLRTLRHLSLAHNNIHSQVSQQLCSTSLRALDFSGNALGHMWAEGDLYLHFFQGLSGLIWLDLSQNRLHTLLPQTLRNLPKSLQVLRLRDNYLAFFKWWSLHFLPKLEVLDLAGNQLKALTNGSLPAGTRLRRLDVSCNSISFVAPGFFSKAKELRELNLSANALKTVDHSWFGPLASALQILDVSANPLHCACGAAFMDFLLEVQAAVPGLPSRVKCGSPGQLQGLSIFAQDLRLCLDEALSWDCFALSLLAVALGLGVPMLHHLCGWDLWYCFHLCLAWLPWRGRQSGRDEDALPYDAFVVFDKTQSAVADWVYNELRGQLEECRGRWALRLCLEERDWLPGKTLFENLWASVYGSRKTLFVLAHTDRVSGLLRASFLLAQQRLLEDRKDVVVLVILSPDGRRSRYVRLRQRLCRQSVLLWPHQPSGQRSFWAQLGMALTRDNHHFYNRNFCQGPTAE
Kind of assay: TLR9 inhibition reporter assay (HEK-Blue cells, SEAP reporter, ODN2006 stimulation). Conditions: HEK-Blue cells overexpressing human TLR9, SEAP reporter, ODN2006 5 nM. The method, boiled down:
as §1
(Reporter assays use an easily measured gene product as a stand-in for the process of interest.)

Take `COc1cc(-c2[nH]nc(-c3ccc(C4CN(C(=O)CN(C)C)C4)cc3)c2C(C)C)cn2ncnc12` [compound 335]: the IC50 is 15.5 nM in assay [1], 11.1 nM in assay [2] and greater than 50000 nM in assay [3].
As to `CCCN1CC(c2ccc(-c3n[nH]c(-c4cc(C)c5ncnn5c4)c3C(C)C)cc2)C1` [Example 326], the IC50 in assay [1] is 5.42 nM; in assay [2], 7.97 nM; in assay [3], 17600 nM.
For the compound `Cc1cc(-c2[nH]nc(C(=O)N[C@@H]3CCCN(C)C3)c2C(C)C)cn2ncnc12` [Example 160], the IC50 worked out at 0.61 nM in assay [1], 0.06 nM in assay [2] and 5300 nM in assay [3].
For the compound `Cc1cc(-c2[nH]nc(C(=O)NC3CCN(CC4CC4)CC3)c2C(C)C)cn2ncnc12` [Example 73], the IC50 in assay [1] amounted to 0.96 nM; in assay [2], 12.7 nM; in assay [3], 4280 nM.
As for `Cc1cc(-c2[nH]nc(-c3ccc4c(c3)CCN(CC(N)=O)C4)c2C(C)C)cn2ncnc12` [Example 272], the values for the IC50 in assay [1], in assay [2] and in assay [3] were 137 nM, 122 nM and greater than 50000 nM, respectively.
Consider `COc1cc(-c2[nH]nc(-c3ccc(C4CCN(C(=O)CN(C)C)CC4)cn3)c2C(C)C)cn2ncnc12` [Example 402, 2-(dimethylamino)-1-(4-(6-(4-isopropyl-5-(8-methoxy-[1,2,4]triazolo[1,5-a]pyridin-6-yl)-1H-pyrazol-3-yl)pyridin-3-yl)piperidin-1-yl)ethan-1-one], for which the IC50 in assay [1] is 35.1 nM; in assay [2], 297 nM; in assay [3], greater than 50000 nM.
As to `Cc1cc(-c2[nH]nc(-c3nc4c(s3)CN(C(=O)C[C@H](C)O)CC4)c2C(C)C)cn2ncnc12` [Example 269], the values for the IC50 in assay [1], in assay [2] and in assay [3] were 4.31 nM, 2.55 nM and 6280 nM, respectively.
For `Cc1cc(-c2[nH]nc(C3CCN(C(=O)CCN(C)C)CC3)c2C(C)C)cn2ncnc12` [Example 208, 3-(dimethylamino)-1-(4-(4-isopropyl-5-(8-methyl-[1,2,4]triazolo[1,5-a]pyridin-6-yl)-1H-pyrazol-3-yl)piperidin-1-yl)propan-1-one] the same measures were 1 nM, 0.52 nM and 20000 nM.
As to `Cc1cc(-c2[nH]nc(-c3nc4c(s3)CN(C3COC3)CC4)c2C(C)C)cn2ncnc12` [Example 253], the IC50 was 4.7 nM in assay [1], 3.01 nM in assay [2] and 23000 nM in assay [3].
Regarding `Cc1cc(-c2[nH]nc(C(=O)NC3CNC3)c2C(C)C)cn2ncnc12` [Example 58], the IC50 came out at 3.01 nM in assay [1], 1.43 nM in assay [2] and 32800 nM in assay [3].
Regarding `COc1cc(-c2[nH]nc(C(=O)N3CCCN(C)CC3)c2C(C)C)cn2ncnc12` [Example 10], the IC50 worked out at 1.37 nM in assay [1], 1.9 nM in assay [2] and 1330 nM in assay [3].
For `Cc1cc(-c2[nH]nc(-c3nc4c(s3)CN(C(=O)CN(C)C)CC4)c2C(C)C)cn2ncnc12` [Example 270] the same measures were 8.99 nM, 14 nM and 3460 nM.
The like results for `Cc1cc(-c2[nH]nc(C3CCC(NCCN(C)C)CC3)c2C(C)C)cn2ncnc12` (single isomer, unassigned) [Example 284] were, in that order, 9.6 nM, 5.12 nM and greater than 50000 nM.
For `Cc1cc(-c2[nH]nc(C(=O)N[C@H]3CC[C@@H](NCc4cccnc4)CC3)c2C(C)C)cn2ncnc12` [Example 95] the same measures were 11.7 nM, 23.8 nM and 43200 nM.
In the case of `Cc1cc(-c2[nH]nc(C(=O)NC[C@H]3CC[C@H](N)CC3)c2C(C)C)cn2ncnc12` [Example 47], the IC50 in assay [1] worked out at 2.92 nM; in assay [2] it was 0.56 nM; in assay [3] it was 6840 nM.
Turning to `Cc1noc(C)c1CN[C@H]1CC[C@@H](NC(=O)c2n[nH]c(-c3cc(C)c4ncnn4c3)c2C(C)C)CC1` [Example 93], the values for the IC50 in assay [1], in assay [2] and in assay [3] were 1.89 nM, 15.6 nM and 12000 nM, respectively.
For `CCN1CC(C(=O)N(C)C2CCC(c3n[nH]c(-c4cc(C)c5ncnn5c4)c3C(C)C)CC2)C1` (single isomer, unassigned) [Example 306], the results for the IC50 in assay [1], in assay [2] and in assay [3] were 148 nM, 124 nM and greater than 50000 nM, respectively.
`COCCN1CCC(NC(=O)c2n[nH]c(-c3cc(C)c4ncnn4c3)c2C(C)C)CC1` [Example 171, 4-isopropyl-N-(1-(2-methoxyethyl)piperidin-4-yl)-5-(8-methyl-[1,2,4]triazolo[1,5-a]pyridin-6-yl)-1H-pyrazole-3-carboxamide]: the IC50 in assay [1] is 0.78 nM; in assay [2], 2.21 nM; in assay [3] it was 879 nM.
In the case of `CCCN1CCC(c2cnc(-c3n[nH]c(-c4cc(OC)c5ncnn5c4)c3C(C)C)cn2)CC1` [Example 383], the IC50 in assay [1] stood at 17.5 nM; in assay [2] it was 3.51 nM; in assay [3], 47000 nM.
